The subject of experiment [1] is Mung bean. Nature of the experiment: Root length of cut Mung bean hypocotyls soaked in compound solutions. In kind it is in vivo. The note with it: Mung bean hypocotyls soaked by 2 cm in compound solution at a given concentration; 6th day after soaking. As to the method: The compounds of the present invention were applied to plant bodies. Hypocotyls of Mung bean on the 6th-day after seeding, that were grown at 25° C., were cut in water with razor, and the hypocotyl parts were soaked by 2 cm in solutions of the compounds at a given concentration. On the 6th day after the soaking, the lengths of the roots were measured. The following results were shown as an average length per root.

In experiment [2] the test system is seeds of barley. Nature of the experiment: Germination rate of barley seeds. Format: in vivo. Particulars: barley seeds with lowered germination rate; 100 seeds, test solution at a given concentration, light, 25° C., after one week. As to the method: In the test, 2 sheets of filter paper were placed in a 15 cm laboratory dish, and each of the test solutions of the compounds at a given concentration (10 ml) was added to the dish, and 100 seeds were put on the paper and cultured under a light at 25° C. Ratios of germinated seeds were calculated after one week.

Experiment [3] concerns spinach. Nature of the experiment: Inhibitory test against pore closing. In kind it is in vivo. Particulars: for inhibitory activities against pore closing: plants with open pores treated with compound, transferred into mannose solution of high concentration. As to the method:
Inhibitory tests against pore closing were carried out by using the aforementioned compounds. In these tests, plants in the state that their pores are open are treated with the compounds, and closings of the pores are examined when the plants are transferred into a mannose solution of high concentration to make the pores closed. Pore closing is caused by the effect of abscisic acid biosynthesized in the body of a plant that has detected the change of the mannose concentration. The test was carried out according to the method described in the literature of Plant Physiology (1992) 99, 1258-1260 and by using spinach as a material.

Experiment [4] relates to epoxycarotenoid dioxygenase (NCED). Nature of the experiment: Inhibitory action against epoxycarotenoid dioxygenase (NCED): cleavage reaction of neoxanthin. Format: biochemical. The note with it: concentration of 100 μM. As to the method:
The inhibitory action against epoxycarotenoid dioxygenase was studied. The test was carried out according to the method described in The Plant Journal (2001) 27(4), 325-333.
The NCED inhibitory activity of the compounds of the present invention was studied.

Experiment [5] deals with abscisic acid biosynthesis. Particulars: reported in Plant Physiology (1992) 99, 1258-1260; cited from earlier work.

On to `Oc1ccc(CCNCc2ccc(O)c(O)c2)cc1` [SY90, 4-{[2-(4-hydroxy-phenyl)-ethylamino]-methyl}-benzene-1,2-diol], for which the “Length (cm), average length per root” value in experiment [1] is greater than 0.1 cm. Besides, the “Germination rate (%)” value in experiment [2] was found to be 12%.
As for `COc1ccc(CCN(C)Cc2ccc(OC)c(OC)c2)cc1` [SY96, (3,4-dimethoxy-benzyl)-[2-(4-methoxy-phenyl)-ethyl]-methyl-amine], the “inhibitory activities against pore closing” value (“inhibitory activities” for short) in experiment [3] is listed as “potent inhibitory activities”. In addition, in experiment [1], the “Length (cm), average length per root” value amounted to 1.5 cm. The “Germination rate (%)” value in experiment [2] was determined as 21%.
Consider `COc1ccc(C=CCNCc2ccc(F)cc2)cc1OC` [SY95, [3-(3,4-dimethoxy-phenyl)-allyl]-(4-fluoro-benzyl)-amine], for which the “inhibitory activities” value in experiment [3] is on record as “potent inhibitory activities”. In addition, the “Length (cm), average length per root” value in experiment [1] was determined as 0.6 cm. The “Germination rate (%)” value in experiment [2] is listed as 29%.
On the same counts, the results for `COC(=O)CN(CC=Cc1ccc(OC)c(OC)c1)Cc1ccc(F)cc1` [SY97, [[3-(3,4-dimethoxy-phenyl)-allyl]-(4-fluoro-benzyl)-amino]-acetic acid methyl ester] are “potent inhibitory activities”, 0.7 cm and 18%.
Consider `COC(=O)COc1ccc(CCN(CC(=O)OC)Cc2ccc(OC)c(OC)c2)cc1` [SY94, {(3,4-dimethoxy-benzyl)-[2-(4-methoxycarbonylmethoxy-phenyl)-ethyl]-amino}-acetic acid methyl ester], for which the “inhibitory activities” value in experiment [3] was “potent inhibitory activities”. The “Length (cm), average length per root” value in experiment [1] stood at 2.1 cm. In experiment [2], the “Germination rate (%)” value is listed as 52%.
For `Oc1ccc(CCNCc2ccncc2)cc1` [SY106, 4-{2-[(pyridin-4-ylmethyl)-2-amino]-ethyl}-phenol], the “Length (cm), average length per root” value in experiment [1] is reported as greater than 0.1 cm. Besides, the “Germination rate (%)” value in experiment [2] is 9%.
Regarding `Oc1ccc(CCNCc2ccoc2)cc1` [SY107, 4-{2-[(furan-3-ylmethyl)-amino]-ethyl}-phenol], the “Length (cm), average length per root” value in experiment [1] is on record as greater than 0.1 cm. Further, the “Germination rate (%)” value in experiment [2] is listed as 10%.
Consider `CC(Cc1ccc(O)c(O)c1)C(C)Cc1ccc(O)c(O)c1` (centres unmarked) [NDGA, 4,4′-(2,3-dimethyl-1,4-butanediyl)bis-1,2-benzenediol], for which, in experiment [3] (compound-treated plants, abscisic acid added), the “pore closing when treated plants were added with abscisic acid” value was “did not close”. In addition, the “inhibition of the cleavage reaction of neoxanthin by NCED” value in experiment [4] is listed as “completely inhibited”. The “inhibitory action on the abscisic acid biosynthesis” value in experiment [5] is recorded as “inhibitory action on the abscisic acid biosynthesis”.
Take `COc1ccc(CNCCc2ccc(O)cc2)cc1OC` [SY88, 4-[2-(3,4-dimethoxy-benzylamino)-ethyl]-phenol]: the “Length (cm), average length per root” value in experiment [1] is listed as greater than 0.1 cm. The “Germination rate (%)” value in experiment [2] came out at 8%.
As for `COc1ccc(C=CCN(C)Cc2ccc(F)cc2)cc1OC` [SY99, [3-(3,4-dimethoxy-phenyl)-allyl]-(4-fluoro-benzyl)-methyl-amine], in experiment [3], the “inhibitory activities” value was “potent inhibitory activities”. Also, the “Length (cm), average length per root” value in experiment [1] was found to be 0.4 cm. For the same compound, the “Germination rate (%)” value in experiment [2] is reported as 15%.
In the case of `COc1ccc(NCC=Cc2ccc(OC)c(OC)c2)cc1` [SY87, [3-(3,4-dimethoxy-phenyl)-allyl]-(4-methoxy-phenyl)-amine], the “inhibitory activities” value in experiment [3] was “potent inhibitory activities”. In experiment [1], the “Length (cm), average length per root” value came out at 0.6 cm. In experiment [2], the “Germination rate (%)” value was found to be 40%.
As to `Oc1ccc(CCNCc2ccccc2O)cc1` [SY109, 4-[2-(2-hydroxy-benzylamino)-ethyl]-phenol], the “inhibitory activities” value in experiment [3] is “potent inhibitory activities”. In experiment [1], the “Length (cm), average length per root” value amounted to 1.5 cm. For the same compound, the “Germination rate (%)” value in experiment [2] amounted to 35%.

Source of the values: US7432228B2, “Inhibitor against biosynthesis of abscisic acid” (Riken, priority 2001, dated 2008).
